Source: patent US8318804B2 (priority 2007, dated 2012)
Converted amounts (≈) assume the structure as drawn.

Columns and labels:
[1] = system: influenza virus strain A/Wyoming/03/2003 (H3N2); type: cell-based, influenza A virus in MDCK cells
[2] = system: A/WY/03/2003 (H3N2) influenza virus; type: cell-based, influenza A virus in MDCK cells
A/WY/03/2003 = type: cell-based, influenza A virus in MDCK cells
influenza virus = type: cell-based, influenza virus in MDCK cells

With `CCOC(=O)C([C@H]1C=C[C@@H](O)C1)[N+](=O)[O-]` (stereo partly drawn) [EHCN, ethyl-(2R/S, 1′R,4′S)-2-(4′-hydroxy-2′-cyclopenten-1′-yl)-2-nitroacetate] the “cytopathic effect (CPE) observed under the microscope” value [1] was “did not present complete CPE”, the “protection (cell viability assay)” value [2] was 75% and the “EC50 against A/WY/03/2003” value (A/WY/03/2003) was 4.5 µg/mL (≈ 20.9 µM). The “plaque formation / antiviral activity in plaque reduction assay” value (influenza virus) was “fewer and smaller plaques than the untreated wells”.
